The results in this text go back to ChEMBL document CHEMBL1133616, “Synthesis and structure-activity relationships of a new set of 2-arylpyrazolo[3,4-c]quinoline derivatives as adenosine receptor antagonists” (J Med Chem, 2000).

The target in one assay is T1, Adenosine receptor A3 (Homo sapiens, UniProt P0DMS8).
T1 sequence (P0DMS8 whole entry): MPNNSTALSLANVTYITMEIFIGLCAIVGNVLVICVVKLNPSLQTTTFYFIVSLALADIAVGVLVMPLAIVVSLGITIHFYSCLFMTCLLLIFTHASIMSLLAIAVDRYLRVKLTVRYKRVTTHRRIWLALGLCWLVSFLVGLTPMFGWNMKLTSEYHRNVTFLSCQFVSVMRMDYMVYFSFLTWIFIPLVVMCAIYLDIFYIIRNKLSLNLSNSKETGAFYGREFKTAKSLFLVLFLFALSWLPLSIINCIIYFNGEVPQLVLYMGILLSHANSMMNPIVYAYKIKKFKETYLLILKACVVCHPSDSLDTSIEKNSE
Briefly: Displacement of specific [125I]AB-MECA binding at human adenosine A3 receptor expressed in CHO cells. It is filed as cell-based.

The next assay has as its target T2, Adenosine receptor A1 (Bos taurus, UniProt P28190).
T2 sequence (P28190 whole entry): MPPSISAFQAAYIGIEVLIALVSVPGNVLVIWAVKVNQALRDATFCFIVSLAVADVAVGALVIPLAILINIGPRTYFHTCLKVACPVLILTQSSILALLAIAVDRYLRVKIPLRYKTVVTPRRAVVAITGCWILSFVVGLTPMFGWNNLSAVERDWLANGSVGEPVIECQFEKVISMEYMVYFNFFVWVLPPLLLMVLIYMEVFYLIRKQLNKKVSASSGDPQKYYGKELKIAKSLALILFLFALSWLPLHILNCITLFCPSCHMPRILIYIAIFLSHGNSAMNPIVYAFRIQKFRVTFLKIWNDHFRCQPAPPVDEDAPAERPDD
The assay is described as follows: Displacement of specific [3H]CHA binding at adenosine A1 receptor in bovine brain membranes. It is filed as cell membranes.

Assay [1] relates to Adenosine receptor A2a (Bos taurus). The assay is described as follows: Inhibition of specific [3H]-CGS- 21680 binding at Adenosine A2A receptor in bovine striatal membranes at 20 uM. The conditions noted are these: Striatum, Membrane.
Assay [2] deals with Adenosine receptor A2a (Bos taurus). Briefly: Displacement of specific [3H]-CGS- 21680 binding at Adenosine A2A receptor in bovine striatal membranes.
Assay [3] addresses T3, Adenosine receptor A1 (Bos taurus) (UniProt P28190).
T3 sequence (whole entry): T2 sequence (P28190 whole entry)
Briefly: Inhibition of [3H]CHA binding at Adenosine A1 receptor in bovine brain membranes at 20 uM. It is filed as cell membranes.

Assay [4] addresses T4, Adenosine receptor A3 (Homo sapiens) (UniProt P0DMS8).
T4 sequence (whole entry): T1 sequence (P0DMS8 whole entry)
The assay is described as follows: Inhibition of [125I]AB-MECA binding to human Adenosine A3 receptor expressed in CHO cells at 1 uM. It is filed as cell-based.

The structures appear in SMILES notation.

Take `Nc1nc2ccccc2c2cn(-c3ccccc3)nc12`: the Ki on Adenosine receptor A3 was determined as 551 nM; at Adenosine receptor A1 it was 69.2 nM.
In the case of `Fc1cccc(-n2cc3c(n2)c(NC2CCCCC2)nc2ccccc23)c1`, the Ki worked out at 155 nM at Adenosine receptor A3 and 54.7 nM at Adenosine receptor A1.
For `Cc1ccc(-n2cc3c(n2)c(=O)[nH]c2ccccc23)cc1` the same measures were 3.2 nM and 3900 nM.
Regarding `O=c1[nH]c2ccccc2c2cn(-c3ccc(Cl)cc3)nc12`, the figures for the Ki at Adenosine receptor A3 and at Adenosine receptor A1 were 2.9 nM and 464 nM, respectively.
`O=c1[nH]c2ccccc2c2cn(-c3ccccc3)nc12` came in with a Ki at Adenosine receptor A3 of 30.8 nM.
In the case of `c1ccc(-n2cc3c(n2)c(NC2CCCCC2)nc2ccccc23)cc1`, the Ki came to 707 nM at Adenosine receptor A3 and 8.6 nM on Adenosine receptor A1.
With `O=C(Nc1ccccc1)Nc1nc2ccccc2c2cn(-c3ccccc3)nc12`, the values for the Ki at Adenosine receptor A3 and at Adenosine receptor A1 were 108 nM and 1500 nM, respectively. The inhibition in assay [1] was determined as 32%.
Take `Cc1cccc(-n2cc3c(n2)c(N)nc2ccccc23)c1`: the Ki at Adenosine receptor A3 turned out to be 99.3 nM; on Adenosine receptor A1, 129 nM; in assay [2], 3750 nM.
Consider `COc1ccc(-n2cc3c(n2)c(N)nc2ccccc23)cc1`, for which the inhibition constant Ki at Adenosine receptor A3 is 90.2 nM; on Adenosine receptor A1, 238 nM.
The corresponding values for `Cc1ccc(-n2cc3c(n2)c(NC2CCCCC2)nc2ccccc23)cc1` are 115 nM and 71.9 nM.
For `Cn1c(=O)c2nn(-c3ccccc3)cc2c2ccccc21` the same measures were 118 nM and 1230 nM.
For `CCCn1c(=O)c2nn(-c3ccccc3)cc2c2ccccc21` the same measures were 68.4 nM and 950 nM.
Take `Cc1ccccc1-n1cc2c(n1)c(=O)[nH]c1ccccc12`: the values for the Ki on Adenosine receptor A3 and on Adenosine receptor A1 were 79.2 nM and 3200 nM, respectively.
The compound `Nc1nc2ccccc2c2cn(-c3ccc(Cl)cc3)nc12` came in with a Ki at Adenosine receptor A3 of 150 nM.
Turning to `O=C(NCc1ccccc1)Nc1nc2ccccc2c2cn(-c3ccccc3)nc12`, the figures for the Ki on Adenosine receptor A3 and at Adenosine receptor A1 were 8.3 nM and 186 nM, respectively. Moreover, the inhibition in assay [1] worked out at 5%.
With `Cc1cccc(-n2cc3c(n2)c(NC2CCCCC2)nc2ccccc23)c1`, the Ki on Adenosine receptor A3 was determined as 44.1 nM; on Adenosine receptor A1, 22.2 nM; in assay [2], 11400 nM.
As to `Cc1ccc(-n2cc3c(n2)c(N)nc2ccccc23)cc1`, the Ki at Adenosine receptor A3 came to 188 nM; at Adenosine receptor A1, 215 nM.
As to `Clc1ccc2nc(NC3CCCCC3)c3nn(-c4ccccc4)cc3c2c1`, the Ki on Adenosine receptor A3 came to 2130 nM; at Adenosine receptor A1 it was 27.1 nM; in assay [2], 4140 nM.
Take `O=C(Cc1ccccc1)Nc1nc2ccccc2c2cn(-c3ccccc3)nc12`: the Ki came to 9.9 nM at Adenosine receptor A3 and 107 nM at Adenosine receptor A1.
As for `Clc1ccc(-n2cc3c(n2)c(NC2CCCCC2)nc2ccccc23)cc1`, the Ki is 56.5 nM on Adenosine receptor A3 and 478 nM at Adenosine receptor A1. In assay [1], this compound came in with an inhibition of 8%.
As for `O=C(Nc1nc2ccccc2c2cn(-c3ccccc3)nc12)c1ccccc1`, the affinity on Adenosine receptor A3, expressed as Ki, was 2.1 nM. The inhibition in assay [3] came out at 42%.
With `c1ccc(CCNc2nc3ccccc3c3cn(-c4ccccc4)nc23)cc1`, the Ki turned out to be 32.9 nM on Adenosine receptor A3 and 60.1 nM at Adenosine receptor A1.
As for `Cc1cccc(-n2cc3c(n2)c(=O)[nH]c2ccccc23)c1`, the Ki was 5 nM at Adenosine receptor A3 and 830 nM on Adenosine receptor A1. Also, the inhibition in assay [1] worked out at 17%.
Consider `Nc1nc2ccccc2c2cn(-c3cccc(F)c3)nc12`, for which the figures for the Ki at Adenosine receptor A3 and at Adenosine receptor A1 were 788 nM and 110 nM, respectively.
For `Oc1nc2ccccc2c2cn(-c3cccc(F)c3)nc12`, the Ki was determined as 45.3 nM on Adenosine receptor A3 and 583 nM at Adenosine receptor A1. Moreover, the inhibition in assay [1] amounted to 0%.
As for `Cc1ccccc1-n1cc2c(n1)c(NC1CCCC1)nc1ccccc12`, the Ki worked out at 152 nM on Adenosine receptor A3 and 148 nM on Adenosine receptor A1.
Regarding `COc1ccc(-n2cc3c(n2)c(=O)[nH]c2ccccc23)cc1`, the values for the Ki on Adenosine receptor A3 and on Adenosine receptor A1 were 3.2 nM and 1080 nM, respectively. Further, the inhibition in assay [1] was found to be 18%.
For `Nc1nc2ccc(Cl)cc2c2cn(-c3ccccc3)nc12`, the Ki at Adenosine receptor A3 stood at 309 nM; on Adenosine receptor A1, 86.1 nM; in assay [2], 5750 nM.
Regarding `CC(=O)Nc1nc2ccccc2c2cn(-c3ccccc3)nc12`, the Ki at Adenosine receptor A3 came to 48.2 nM; at Adenosine receptor A1 it was 75.9 nM.
Take `c1ccc(-n2cc3c(n2)c(NC2CCCC2)nc2ccccc23)cc1`: the Ki at Adenosine receptor A3 is 60.5 nM; on Adenosine receptor A1 it was 3.2 nM; in assay [2] it was 849 nM.
For `Oc1nc2ccccc2c2cn(-c3ccc(Cl)cc3)nc12`, the inhibition in assay [1] turned out to be 35%.
Take `Oc1nc2ccc(Cl)cc2c2cn(-c3ccccc3)nc12`: the inhibition in assay [1] worked out at 52%.
With `Cc1ccccc1-n1cc2c(n1)c(O)nc1ccccc12`, in assay [1], the inhibition is 0%.
`Cc1ccccc1-n1cc2c(n1)c(N)nc1ccccc12`: the results for the Ki (on Adenosine receptor A3; on Adenosine receptor A1; in assay [2]) were 3600 nM, 520 nM and 1600 nM, respectively.
As to `Fc1cccc(-n2cc3c(n2)c(NC2CCCC2)nc2ccccc23)c1`, the figures for the Ki (on Adenosine receptor A1; in assay [2]) were 9.3 nM and 2210 nM, respectively. Further, the inhibition in assay [4] turned out to be 34%.
With `Cc1cccc(-n2cc3c(n2)c(NC2CCCC2)nc2ccccc23)c1`, the values for the Ki on Adenosine receptor A3 and on Adenosine receptor A1 were 22.3 nM and 40.7 nM, respectively.
The corresponding values for `O=c1[nH]c2ccc(Cl)cc2c2cn(-c3ccccc3)nc12` are 44.1 nM and 284 nM.
In the case of `c1ccc(CNc2nc3ccccc3c3cn(-c4ccccc4)nc23)cc1`, the Ki at Adenosine receptor A3 is 35.8 nM; on Adenosine receptor A1, 132 nM; in assay [2], 5400 nM.

As usually defined, the Ki is the dissociation constant of the complex between target and ligand, obtained from inhibition or displacement. High values mean a looser hold on the target, low ones a stronger hold on the target. Broadly, the inhibition is the drop in the measured response relative to a control, in per cent. High values mean strong suppression, low ones little suppression.
